From patent publication US20070129344A1, “Bicyclic 6-alkylidene-penem beta-lactamase inhibitors and beta-lactam antibiotic combination: a broad spectrum antibiotic” (priority 2005, published 2007)
Values after ≈ are worked out from the molar mass of the structure shown. Like-named read-outs stand apart in the source and are kept apart here.

Columns and labels:
E. coli GC 1807 OXA-7 = test: MIC microbroth dilution; β-lactamase class D; format: cell-based; conditions: Escherichia coli, GC1807OXA7, E. coli GC 1807, Cefepime alone, read-out: MIC
Experimental: (§1) The in vitro activities of the antibiotics were determined by the microbroth dilution method as recommended by the National Committee for Clinical Laboratory Standards (NCCLS). (NCCLS. 2000. Methods for Dilution Antimicrobial Susceptibility Tests for Bacteria That Grow Aerobically; Approved Standards: M7-A5, vol. 19. National Committee for Clinical Laboratory Standards, Villanova, Pa.). Mueller-Hinton II broth (MHBII)(BBL Cockeysville, Md.), was used for the testing procedure. […]. The plates were incubated for 18-22 hours at 35° C. in ambient air.

E. coli GC 1480 OXA-1 = test: MIC microbroth dilution; β-lactamase class D; format: cell-based; conditions: Escherichia coli, GC1480OXA1, E. coli GC 1480, Cefepime alone, read-out: MIC
Experimental: as §1

[1] = system: E. coli GAR 6649 TEM, OXA, CTX (By PCR only); test: MIC microbroth dilution; β-lactamase class A, A (ESBL), D; format: cell-based; conditions: Cefepime alone
Experimental: as §1

[2] = system: S. maltophilia GC 1712 (L1); test: MIC microbroth dilution; β-lactamase class B; format: cell-based; conditions: Cefepime alone
Experimental: as §1

E. coli GC 2920 (IRT-2) = test: MIC microbroth dilution; β-lactamase class A (IRT); format: cell-based; conditions: Cefepime alone
Experimental: as §1

K. pn GC 6639 (SHV-13) = test: MIC microbroth dilution; β-lactamase class A (ESBL); format: cell-based, K. pneumoniae; conditions: Cefepime alone
Experimental: as §1

[3] = system: C. freundii GC 4171 TEM-1 + InducibleAmpC; test: MIC microbroth dilution; β-lactamase class A, C; format: cell-based
Experimental: as §1

[4] = system: E. coli GC 6197 (TEM-1 + SHV-7 + CMY-2); test: MIC microbroth dilution; β-lactamase class A, A (ESBL), C; format: cell-based; conditions: Cefepime alone
Experimental: as §1

[5] = system: K. pneumoniae GC 2825 Act 1 + 3 additional; test: as above; format: cell-based; conditions: Cefepime alone
Experimental: as §1

[6] = system: K. pneumoniae GC 2826 Act 1 + 3 additional; test: as above; format: cell-based; conditions: Cefepime alone
Experimental: as §1

[7] = system: E. coli GC 2149 (ACT-1; TEM-1 + pl 5.6); test: as above; format: cell-based; conditions: Escherichia coli, Cefepime alone, read-out: MIC
Experimental: as §1

[8] = system: E. coli GC 4971 OXA-1, TEM-1; test: MIC microbroth dilution; β-lactamase class A, D; format: cell-based; conditions: Escherichia coli, Cefepime alone, read-out: MIC
Experimental: as §1

[9] = system: A. baumannii PT 8321 PTZ-R; test: MIC microbroth dilution; β-lactamase class not determined; format: cell-based; conditions: Cefepime alone
Experimental: as §1

[10] = system: A. baumannii PT 9158 PTZ-R; test: as above; format: cell-based; conditions: Cefepime alone
Experimental: as §1

[11] = system: S. marcescens GC 1781 (Sme-1 + AmpC); test: MIC microbroth dilution; β-lactamase class A (Cb'ase), C; format: cell-based; conditions: Serratia marcescens, Cefepime alone, read-out: MIC
Experimental: as §1

[12] = system: E. aerogenes GC 7036 TEM-24, Amp C inducable; test: MIC microbroth dilution; β-lactamase class A (ESBL), C; format: cell-based; conditions: Klebsiella aerogenes, Cefepime alone, read-out: MIC
Experimental: as §1

[13] = system: M. morganii GC 1617 TEM-10 + inducible AmpC; test: as above; format: cell-based; conditions: Cefepime alone
Experimental: as §1

[14] = system: E. aerogenes GC 7039 TEM-4, Amp C inducable; test: as above; format: cell-based; conditions: Klebsiella aerogenes, Cefepime alone, read-out: MIC
Experimental: as §1

[15] = system: E. cloacae GC 7065 TEM-26, SHV-12 Amp C inducable; test: as above; format: cell-based; conditions: Enterobacter cloacae, Cefepime alone, read-out: MIC
Experimental: as §1

[16] = system: E. cloacae GC 7052 SHV-5, Amp C inducable; test: as above; format: cell-based; conditions: Cefepime alone
Experimental: as §1

E. coli GC 1995 (TEM-10) = test: MIC microbroth dilution; β-lactamase class A (ESBL); format: cell-based; conditions: Escherichia coli, Cefepime alone, read-out: MIC
Experimental: as §1

E. coli GC 1684 (TEM-10) = test: as above; format: cell-based; conditions: Cefepime alone
Experimental: as §1

E. coli GC 2400 (TEM-43) = test: as above; format: cell-based; conditions: Cefepime alone
Experimental: as §1

[17] = system: S. typhimurium GC 4197 CTX-M-5; test: as above; format: cell-based; conditions: Cefepime alone
Experimental: as §1

E. coli GC 6368 (SHV-7) = test: as above; format: cell-based; conditions: Escherichia coli, Cefepime alone, read-out: MIC
Experimental: as §1

[18] = system: E. coli GC 2017 (TEM-10 + pl 6.3; 8.1); test: as above; format: cell-based; conditions: Cefepime alone
Experimental: as §1

E. coli GC 2300 (TEM-28) = test: as above; format: cell-based; conditions: Cefepime alone
Experimental: as §1

[19] = system: K. pneumoniae GC 7635 SHV-1, KPC2; test: MIC microbroth dilution; β-lactamase class A, A (Cb'ase); format: cell-based; conditions: Cefepime alone
Experimental: as §1

[20] = system: E. coli GC 1695 (TEM-1 + TEM-10); test: MIC microbroth dilution; β-lactamase class A, A (ESBL); format: cell-based; conditions: Cefepime alone
Experimental: as §1

[21] = system: E. coli GC 2146 (TEM-1; SHV-7); test: as above; format: cell-based; conditions: Cefepime alone
Experimental: as §1

[22] = system: E. coli GC 5901 (TEM-1 and SHV-8); test: as above; format: cell-based; conditions: Cefepime alone
Experimental: as §1

[23] = system: E. coli GC 2015 (TEM-10 + SHV-1); test: as above; format: cell-based; conditions: Cefepime alone
Experimental: as §1

[24] = system: E. coli GC 1499 (TEM-4 + TEM-1); test: as above; format: cell-based; conditions: Cefepime alone
Experimental: as §1

[25] = system: E. coli GC 6260 (TEM-1 + SHV-5); test: as above; format: cell-based; conditions: Cefepime alone
Experimental: as §1

[26] = Escherichia coli, control of Compound 1 test, read-out: MIC
[27] = Klebsiella pneumoniae, control of Compound 1 test, read-out: MIC

CO/N=C(\C(=O)N[C@@H]1C(=O)N2C(C(=O)[O-])=C(C[N+]3(C)CCCC3)CS[C@H]12)c1csc(N)n1 [Cefepime, reference compound]
MIC (E. coli GC 1807 OXA-7; control of Compound 1 test): 0.12 µg/mL (≈ 0.25 µM) | MIC (E. coli GC 1807 OXA-7; control of Compound 2 test): 0.25 µg/mL (≈ 0.52 µM) | MIC (E. coli GC 1480 OXA-1; control of Compound 1 test): 4 µg/mL (≈ 8.32 µM) | MIC (E. coli GC 1480 OXA-1; control of Compound 2 test): 2 µg/mL (≈ 4.16 µM) | MIC ([1]; control of Compound 2 test): >16 µg/mL | MIC [1, 26]: > 16 µg/mL | MIC ([2]; control of Compound 2 test): >16 µg/mL | MIC ([2]; Stenotrophomonas maltophilia, control of Compound 1 test, read-out: MIC): > 16 µg/mL | MIC (E. coli GC 2920 (IRT-2); control of Compound 2 test): 0.06 µg/mL (≈ 0.125 µM) | MIC (E. coli GC 2920 (IRT-2); [26]): 0.06 µg/mL (≈ 0.125 µM) | MIC (K. pn GC 6639 (SHV-13); control of Compound 2 test): >16 µg/mL | MIC (K. pn GC 6639 (SHV-13); [27]): > 16 µg/mL | MIC ([3]; C. freundii GC 4171, Cefepime alone, control of Compound 2 test): 4 µg/mL (≈ 8.32 µM) | MIC ([3]; Citrobacter freundii): 4 µg/mL (≈ 8.32 µM) | MIC ([4]; control of Compound 2 test): >16 µg/mL | MIC [4, 26]: > 16 µg/mL | MIC ([5]; control of Compound 2 test): 2 µg/mL (≈ 4.16 µM) | MIC [5, 27]: 2 µg/mL (≈ 4.16 µM) | MIC ([6]; control of Compound 2 test): 8 µg/mL (≈ 16.6 µM) | MIC [6, 27]: 8 µg/mL (≈ 16.6 µM) | MIC ([7]; control of Compound 1 test): 8 µg/mL (≈ 16.6 µM) | MIC ([7]; control of Compound 2 test): 16 µg/mL (≈ 33.3 µM) | MIC ([8]; control of Compound 1 test): 2 µg/mL (≈ 4.16 µM) | MIC ([8]; control of Compound 2 test): 4 µg/mL (≈ 8.32 µM) | MIC ([9]; Acinetobacter baumannii, PT8321PTZR, control of Compound 1 test, read-out: MIC): > 16 µg/mL | MIC ([9]; control of Compound 2 test): >16 µg/mL | MIC ([10]; Acinetobacter baumannii, PT9158PTZR, control of Compound 1 test, read-out: MIC): > 16 µg/mL | MIC ([10]; control of Compound 2 test): >16 µg/mL | MIC ([11]; control of Compound 1 test): 0.25 µg/mL (≈ 0.52 µM) | MIC ([11]; control of Compound 2 test): 0.06 µg/mL (≈ 0.125 µM) | MIC ([12]; control of Compound 1 test): 2 µg/mL (≈ 4.16 µM) | MIC ([12]; control of Compound 2 test): 4 µg/mL (≈ 8.32 µM) | MIC ([13]; control of Compound 2 test): 0.25 µg/mL (≈ 0.52 µM) | MIC ([13]; Morganella morganii, control of Compound 1 test, read-out: MIC): 0.25 µg/mL (≈ 0.52 µM) | MIC ([14]; control of Compound 1 test): 16 µg/mL (≈ 33.3 µM) | MIC ([14]; control of Compound 2 test): > 16 µg/mL | MIC ([15]; control of Compound 1 test): 4 µg/mL (≈ 8.32 µM) | MIC ([15]; control of Compound 2 test): 16 µg/mL (≈ 33.3 µM) | MIC ([16]; control of Compound 2 test): 16 µg/mL (≈ 33.3 µM) | MIC ([16]; Enterobacter cloacae, control of Compound 1 test, read-out: MIC): 16 µg/mL (≈ 33.3 µM) | MIC (E. coli GC 1995 (TEM-10); control of Compound 1 test): 8 µg/mL (≈ 16.6 µM) | MIC (E. coli GC 1995 (TEM-10); control of Compound 2 test): 16 µg/mL (≈ 33.3 µM) | MIC (E. coli GC 1684 (TEM-10); control of Compound 2 test): >16 µg/mL | MIC (E. coli GC 1684 (TEM-10); [26]): > 16 µg/mL | MIC (E. coli GC 2400 (TEM-43); control of Compound 2 test): >16 µg/mL | MIC (E. coli GC 2400 (TEM-43); [26]): > 16 µg/mL | MIC ([17]; control of Compound 2 test): >16 µg/mL | MIC ([17]; Salmonella enterica, control of Compound 1 test, read-out: MIC): > 16 µg/mL | MIC (E. coli GC 6368 (SHV-7); control of Compound 1 test): 1 µg/mL (≈ 2.08 µM) | MIC (E. coli GC 6368 (SHV-7); control of Compound 2 test): 2 µg/mL (≈ 4.16 µM) | MIC ([18]; control of Compound 2 test): >16 µg/mL | MIC [18, 26]: > 16 µg/mL | MIC (E. coli GC 2300 (TEM-28); control of Compound 2 test): 16 µg/mL (≈ 33.3 µM) | MIC (E. coli GC 2300 (TEM-28); [26]): 16 µg/mL (≈ 33.3 µM) | MIC ([19]; control of Compound 2 test): >16 µg/mL | MIC [19, 27]: > 16 µg/mL | MIC ([20]; control of Compound 2 test): >16 µg/mL | MIC [20, 26]: > 16 µg/mL | MIC ([21]; control of Compound 2 test): >16 µg/mL | MIC [21, 26]: > 16 µg/mL | MIC ([22]; control of Compound 2 test): >16 µg/mL | MIC [22, 26]: > 16 µg/mL | MIC ([23]; control of Compound 2 test): >16 µg/mL | MIC [23, 26]: > 16 µg/mL | MIC ([24]; control of Compound 2 test): >16 µg/mL | MIC [24, 26]: > 16 µg/mL | MIC ([25]; control of Compound 2 test): >16 µg/mL | MIC [25, 26]: > 16 µg/mL
